Laboratory results from EP1235797B1, “ARALKYL-1,2-DIAMINES HAVING CALCIMIMETIC ACTIVITY AND PREPARATION MODE” (CENTRE NATIONAL DE LA RECHERCHE SCIENTIFIQUE (CNRS), priority 1999, dated 2001).

What was measured:
[1] = biological target: T1, récepteurs de la parathyroïde (Rattus norvegicus, UniProt P48442); conditions: experimental trials in the rat; cited from earlier work
T1 construct: from tissue; host or cells: rat parathyroid gland (in vivo)
T1 sequence (P48442 20-1079): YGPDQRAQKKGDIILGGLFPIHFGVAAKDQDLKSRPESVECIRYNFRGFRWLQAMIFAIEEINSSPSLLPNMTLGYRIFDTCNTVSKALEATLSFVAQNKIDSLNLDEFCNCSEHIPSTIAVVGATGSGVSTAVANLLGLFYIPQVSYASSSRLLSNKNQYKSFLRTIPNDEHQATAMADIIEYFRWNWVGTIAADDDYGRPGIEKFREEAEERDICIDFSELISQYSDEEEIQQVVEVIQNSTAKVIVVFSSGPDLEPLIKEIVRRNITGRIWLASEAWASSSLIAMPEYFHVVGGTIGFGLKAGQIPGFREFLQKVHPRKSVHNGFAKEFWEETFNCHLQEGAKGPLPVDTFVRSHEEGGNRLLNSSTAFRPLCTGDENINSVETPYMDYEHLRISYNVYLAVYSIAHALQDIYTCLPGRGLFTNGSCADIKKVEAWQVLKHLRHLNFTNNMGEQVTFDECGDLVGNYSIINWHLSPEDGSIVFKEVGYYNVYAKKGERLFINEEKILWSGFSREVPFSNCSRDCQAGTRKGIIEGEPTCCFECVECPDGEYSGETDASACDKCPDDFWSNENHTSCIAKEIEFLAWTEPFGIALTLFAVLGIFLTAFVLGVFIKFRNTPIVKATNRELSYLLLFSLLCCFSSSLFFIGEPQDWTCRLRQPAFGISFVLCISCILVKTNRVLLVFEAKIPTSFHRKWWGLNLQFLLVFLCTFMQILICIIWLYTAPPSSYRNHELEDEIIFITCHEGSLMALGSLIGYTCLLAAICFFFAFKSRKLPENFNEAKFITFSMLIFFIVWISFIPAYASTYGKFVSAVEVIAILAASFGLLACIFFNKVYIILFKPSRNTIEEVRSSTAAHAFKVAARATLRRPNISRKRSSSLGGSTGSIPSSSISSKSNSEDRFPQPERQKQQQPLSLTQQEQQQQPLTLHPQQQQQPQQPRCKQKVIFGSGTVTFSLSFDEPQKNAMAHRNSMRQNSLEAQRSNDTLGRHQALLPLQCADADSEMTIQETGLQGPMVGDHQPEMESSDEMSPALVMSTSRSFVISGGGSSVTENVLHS

cellules CHO(WT*) = experiment: Specificity control: [3H]IP accumulation in CHO(WT*) control cells transfected with the plasmid alone, not expressing CaSR; type: cell-based, hamster chinois; conditions: compound 10 µM, basal level in presence of 2 mM Ca^2+ = 100 %
Procedure: Les molécules PHD, utilisées à une concentration de 10 µM ne conduisent pas ou peu à l'accumulation d'[^3H]IP dans des cellules CHO(WT*) témoins ce qui suggère leur spécificité d'action vis-à-vis du CaSR (Tableau 2). Les cellules CHO(WT*) ont été tranfectées avec le plasmide seul et n'expriment pas le CaSR.
(§1) L'accumulation d'inositols phosphates tritiés est exprimée en pourcentage du taux de base observé en présence de 2 mM Ca^2+ (100 %) dans les cellules CHO(WT*) ou CHO(CaSR).

CaSR de rat = biological target: T2, CaSR de rat (Rattus norvegicus, UniProt P48442); experiment: Accumulation of tritiated inositol phosphates ([3H]IP) in transfected CHO(CaSR) cells; type: cell-based; conditions: compound 10 µM
T2 construct: expressed in transfected cells; host or cells: CHO (Chinese hamster ovary) cells, line CHO(CaSR)
T2 sequence (P48442 20-1079): T1 sequence (P48442 20-1079)
Description: L'ADN complémentaire codant pour le CaSR de rat a été isolé à partir d'une banque ADNc de striatum de rat (Ruat et al, Proc. Natl. Acad. Sci., 1995). Ce récepteur est identique au niveau de sa séquence en acides aminés à celui exprimé dans les autres tissus. Des cellules ovariennes de hamster chinois (CHO) transfectées exprimant le CaSR de rat (CHO(CaSR)) ont été caractérisées et les signaux chimiques (seconds messagers) induits par l'activation de ce récepteur ont été analysés. Ainsi, un test biochimique permettant de mesurer l'accumulation d'inositols phosphates tritiés [^3H]IP en réponse à l'activation du récepteur a été mis au point (Ruat et al, J. Biol. Chem., 1996; Ferry et al, Biochem. Biophys. Res. Commun., 1997).
L'activité calcimimétique des composés a été estimée en mesurant l'accumulation d'inositols phosphates tritiés induite par 10 µM de chacun des composés en présence de 2 mM de Ca^2+ dans les cellules CHO(CaSR) (Ferry et al, Biochem Biophys Res Commun, 1997).
Cette activation a été comparée à celle induite par le composé NPS-R- 568, un calcimimétique de référence et utilisé à une concentration de 10 µM (Tableau 1) (Ferry et al, Biochem Biophys Res Commun, 1997; Nemeth et al, Proc Natl Acad Sci USA, 1997).
Dans le tableau 1, l'activité calcimimétique des composés PHD est comparée à celle d'un composé de référence, le NPS-R-568 utilisé à la même concentration et dans les mêmes conditions expérimentales. Cette activité est exprimée en pourcentage de l'activité de 10 mM de Ca^2+. Les moyennes ± erreurs standards de 2 à 5 manipulations indépendantes sont indiquées. Les expériences ont été réalisées en présence de 2 mM de Ca^2+.
as §1

glande parathyroïdienne = conditions: rat model of chronic renal failure (Wada et al, J. Clin. Invest., 1997); cited from earlier work
PTH [2] = conditions: oral route, postmenopausal women with primary hyperparathyroidism (Silverberg et al, 1997); cited from earlier work
[3] = clinical trials Phase I - II, NPS Pharmaceutical (Nemeth et al, 1999); cited from earlier work
PTH [4] = conditions: male patients with chronic renal failure (Antansen et al, Kidney International, 1998); cited from earlier work
ostéitis fibrosa = conditions: rat (Wada et al, Kidney International, 1998); cited from earlier work

SMILES	sélectivité vis à vis des récepteurs de la parathyroïde comparativement à ceux de la glande thyroïde [1]	Accumulation d'(^3H)-IP % du taux basal. CHO (WT*) (cellules CHO(WT*))	activity at 10 µM (cellules CHO(WT*); read-out: Accumulation d'(^3H)-IP % du taux basal. CHO (WT*)) [%]	Accumulation d'(^3H)-IP % du taux basal. CHO (CaSR) (CaSR de rat; basal level in presence of 2 mM Ca^2+ = 100 %)	activity at 10 µM (CaSR de rat; basal level in presence of 2 mM Ca^2+ = 100 %, read-out: Accumulation d'(^3H)-IP % du taux basal. CHO (CaSR)) [%]	Accumulation d'(^3H)-IP % de la réponse 10mM Ca^2+ ± E.S. (CaSR de rat; in presence of 2 mM Ca^2+, mean ± standard error of 2 to 5 independent experiments) [%]	activation at 10 µM (CaSR de rat; in presence of 2 mM Ca^2+, mean ± standard error of 2 to 5 independent experiments, read-out: Accumulation d'(^3H)-IP % de la réponse 10mM Ca^2+ ± E.S.) [%]	réduire la prolifération cellulaire observée dans la glande parathyroïdienne (glande parathyroïdienne)	concentrations de PTH et des ions Ca^2+ libres sériques (PTH [2])	bio-disponibilité [3]	concentrations de PTH (PTH [4])	ostéitis fibrosa (ostéitis fibrosa)
COc1cccc([C@@H](C)NCCCc2ccccc2)c1 [NPS R-467]	plus sélectif	–	–	–	–	–	–	–	–	–	–	–
COc1cccc([C@@H](C)NCCCc2ccccc2Cl)c1 [NPS R-568, reference compound]	–	peu ou pas d'accumulation	119 ± 9	une forte accumulation	454 ± 33	106 ± 15	100	20-50%	abaisser	faible	réduit	réduit ou élimine
